From US6881824B1, “Peptides suitable for use in antigen specific immunosuppressive therapy” (Akzo Nobel N.V., priority 1996, dated 2005)
Ends that are not written are not given here.

B1: HC gp-39 peptide 5 (residues 46-61) (peptide)
peptide: LDRFLCTHIIYSFANI
B2: HC gp-39 peptide 54 (residues 340-355) (peptide)
peptide: YLKDRQLAGAMVWALD
B3: HC gp-39 peptide 30 (residues 196-211) (peptide)
peptide: QHLDFISIMTYDFHGA
B4: HC gp-39 peptide 57 (residues 358-373) (peptide)
peptide: DFQGSFCGQDLRFPLT
B5: HC gp-39 peptide 4 (residues 40-55) (peptide)
peptide: SCFPDALDRFLCTHII
B6: HC gp-39 peptide 6 (residues 52-67) (peptide)
peptide: THIIYSFANISNDHID
B7: HC gp-39 peptide 37 (residues 238-253) (peptide)
peptide: DYAVGYMLRLGAPASK
B8: HC gp-39 peptide 1 (residues 22-37) (peptide)
peptide: YKLVCYYTSWSQYREG
B9: HC gp-39 peptide 15 (residues 106-121) (peptide)
peptide: FSKIASNTQSRRTFIK
notes: This is probably a misprint
B10: HC gp-39 peptide 17 (residues 118-133) (peptide)
peptide: TFIKSVPPFLRTHGFD

Experiments:
Balb/c mouse = assay: HC gp-39 administration in Balb/c mice (arthritis); type: in vivo; conditions: administration of HC gp-39
[1] = system: PBMC from RA patients and healthy controls carrying the DR4 (DRB1*0401) specificity; assay: Proliferative responses of blood mononuclear cells, RA patients and healthy donors taken together; type: cell-based, human; conditions: individual peptides; any donor
Experimental: (§1) In order to identify T-cell epitopes within HC gp-39, 59 peptides of 16 AA in length, overlapping by 10 AA were tested for their capacity to induce a proliferative response in PBMC from RA patients and healthy controls carrying the DR4 (DRB1*0401) specificity (Table 1).
(§2) PBMC obtained from heparinized venous peripheral blood were isolated by standard centrifugation on a Ficoll-Paque gradient. Cells were cultured in four-fold at a concentration of 1,5×10^5 cells/well in medium supplemented with 10% heat-inactivated, autologous plasma, L-glutamine, 2-ME and antibiotics in flatbottomed microtiter plates. Cells were incubated in medium alone or in the presence of phytohaemagglutinin (PHA) (2:5 μg/ml) to assert cell viability, or in the presence of 10 or 100 μg/ml of the HC gp-39-derived peptides. In several cases, sets of 2 or 3 sequential peptides were tested due to limited PBMC numbers of individual donors. Cultures were incubated in a total volume of 210 μl for 7 days at […] in a humidified atmosphere of 5% CO2. Cultures were pulsed during the last 18 hours with 0.25 μCi ^3H-thymidine ([^3H]TdR). Cells were harvested on glassfiber filters and [^3H] TdR incorporation was measured by gas scintillation (Packard Matrix 96 βcounter). Only peptides inducing a proliferative response at both 10 and 100 μg/ml were considered to contain a T-cell epitope. Responses were defined positive if stimulation index values (SI, antigen-specific counts per 5 min (cp5 m)/background cp5 m) exceeded or equaled 2.
(§3) T-cell reactivity to HC gp-39-derived peptide as analyzed by measuring the PBMC proliferative response in DR4 (DRB1*0401)-positive RA patients and healthy donors. Proliferative responses were tested in autologous plasma. In Table IIIA and IIIB the results of 7 experiments are presented showing the responses of RA patients (Table IIIA) and the responses of healthy donors (Table IIIB) to 59 overlapping sequences derived from HC gp-39.

[2] = system: PBMC from RA patients carrying the DR4 (DRB1*0401) specificity; assay: Peptide-induced proliferative responses of PBMC from RA patients; type: cell-based, human; conditions: for Peptide-induced proliferative response of PBMC, RA 272: RA patient 272, 0401, R
In short: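 PBMC (1,5×10^5/well) from 7 DRB1*0401-positive RA patients were cultured 7 days in 10% autologous plasma with overlapping 16-mer HC gp-39 peptides at 10 or 100 μg/ml, sometimes as sets of 2–3 peptides. [3H]thymidine pulse over the final 18 h; positive when stimulation index ≥2 at both concentrations.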

[3] = target: T1, DR4 (DRB1*0401) molecules (Homo sapiens, UniProt P01903+P01911, A100K/A169T/F76Y/I96L/K127E/L162R/M171V/N62H/P40V/Q125Y/R42H/S133A/S149N/S66Y/V115G/V209L/W38E); assay: Peptide HLA-DR binding assay (semi-quantitative competition binding); conditions: for IC50: competition with biotinylated marker peptide HA 309 Y→F, pH5.0, 44 hr RT
T1 construct: molecules were purified from the homozygous EBV-transformed human B lymphoblastoid cell lines Huly138IC2 and BM92 using the mAb; endogenous in cells
In short: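 HLA-DR from EBV B-cell lines (30 nM DRB1*0401 or 15 nM DRB1*0404) incubated 44 h at RT, pH 5.0, with 50 nM biotinylated HA 309 Y→F marker peptide and competitor peptide range. Bound marker captured on nitrocellulose, detected by streptavidin-HRP ECL; IC50 = concentration giving 50% signal reduction.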

[4] = system: PBMC from healthy donors carrying the DR4 (DRB1*0401) specificity; assay: Peptide-induced proliferative responses of PBMC from healthy donors; type: cell-based, human; conditions: for Peptide-induced proliferative response of PBMC, HD 230: healthy donor 230, 0401, R, 100 and 10 microgram/ml, 7 days, 3H-thymidine incorporation
Experimental: Peripheral blood samples from 5 healthy donors carrying the DR4(DRB1*0401) specificity were obtained with informed consent and included in this study as a control.
as §1, §2, §3

[5] = target: T2, DR4 (DRB1*0401) molecules purified from the homozygous EBV-transformed human B lymphoblastoid cell line … (human, UniProt P01903 26-254)
[6] = target: T2, DR4 (DRB1*0401) molecules purified from …; assay: competition binding assay on purified DR4(DRB1*0401)
[7] = 100 and 10 microgram/ml, 7 days, 3H-thymidine incorporation

Molecule	IC50 [5] [nM]	binding result [6]	other results
Human Cartilage glycoprotein 39 [HC gp-39]			Arthritic development (Balb/c mouse): delayed and/or suppressed arthritic development; Immunological tolerance (Balb/c mouse): resulted in immunological tolerance
THIIYSFANISNDHID [compound 6, THIIYSFANISNDHID]			Responses to the individual peptides (PBMC proliferation), identifying T-cell epitopes [1]: observed in one or more donors; Peptide-induced proliferative response of PBMC, RA 272 [2, 7]: pos (positive responses to both 100 and 10 microgram/ml of peptide or sets of peptides (SI≧2 were regarded positive)); Response of PBMC from RA patient 272 to individual peptides, in words [2]: appeared to respond; Peptide-induced proliferative response of PBMC, RA 276 ([2]; RA patient 276, 0401, R, 100 and 10 microgram/ml, 7 days, 3H-thymidine incorporation): pos (positive responses to both 100 and 10 microgram/ml of peptide or sets of peptides (SI≧2 were regarded positive)); Peptide-induced proliferative response of PBMC, RA 286 ([2]; RA patient 286, 0401, R, 100 and 10 microgram/ml, 7 days, 3H-thymidine incorporation): pos (positive responses to both 100 and 10 microgram/ml of peptide or sets of peptides (SI≧2 were regarded positive)); Relative affinity of binding to DR4 (DRB1*0401), in words [3]: relatively high affinity; IC50 ([3]; Table IIIA): < 1000 nM; IC50 ([3]; Table IIIB): < 1000 nM; Presence of T-cell epitopes confirmed by PBMC of healthy donor 230 [4]: confirmed the presence of T-cell epitopes; Peptide-induced proliferative response of PBMC, HD 230 [4]: pos (positive responses to both 100 and 10 microgram/ml of peptide or sets of peptides (SI>2 were regarded positive))
YKLVCYYTSWSQYREG [peptide 1, YKLVCYYTSWSQYREG]			Responses to the individual peptides (PBMC proliferation), identifying T-cell epitopes [1]: observed in one or more donors; Peptide-induced proliferative response of PBMC, RA 272 [2, 7]: pos (positive responses to both 100 and 10 microgram/ml of peptide or sets of peptides (SI≧2 were regarded positive)); Response of PBMC from RA patient 272 to individual peptides, in words [2]: appeared to respond; Relative affinity of binding to DR4 (DRB1*0401), in words [3]: relatively high affinity; IC50 ([3]; Table IIIA): < 1000 nM; IC50 ([3]; Table IIIB): < 1000 nM; Presence of T-cell epitopes confirmed by PBMC of healthy donor 230 [4]: confirmed the presence of T-cell epitopes; Peptide-induced proliferative response of PBMC, HD 230 [4]: pos (positive responses to both 100 and 10 microgram/ml of peptide or sets of peptides (SI>2 were regarded positive))
B1	< 1000	binds	
B2	< 1000	binds	
B3	< 1000	binds	
B4	1000 to 10000	binds	
B5	10000 to 100000	binds	
B6	< 1000	binds	
B7	< 1000	binds	
B8	< 1000	binds	
B9	< 1000	binds	
B10	1000 to 10000	binds	
